# Test results reported in article PMC3975428, “Dimers of G-Protein Coupled Receptors as Versatile Storage and Response Units” (International Journal of Molecular Sciences, 2014).
# No end group written: not given here.
# B1: human neuropeptide Y Y2 receptor expressed in CHO cells (receptor, UniProt P49146 1-381, looked up)
# chain: MGPIGAEADENQTVEEMKVEQYGPQTTPRGELVPDPEPELIDSTKLIEVQVVLILAYCSIILLGVIGNSLVIHVVIKFKSMRTVTNFFIANLAVADLLVNTLCLPFTLTYTLMGEWKMGPVLCHLVPYAQGLAVQVSTITLTVIALDRHRCIVYHLESKISKRISFLIIGLAWGISALLASPLAIFREYSLIEIIPDFEIVACTEKWPGEEKSIYGTVYSLSSLLILYVLPLGIISFSYTRIWSKLKNHVSPGAANDHYHQRRQKTTKMLVCVVVVFAVSWLPLHAFQLAVDIDSQVLDLKEYKLIFTVFHIIAMCSTFANPLLYGWMNSNYRKAFLSAFRCEQRLDAIHSEVSVTFKAKKNLEVRKNSGPNDSFTEATNV
# notes: neuropeptide Y receptor type 2 (Y2), human cDNA in pcDNA 3.1+; Assayed in particulates (membranes) of the cells and in digitonin/cholate lysates of them; also called hY2 receptor; CHO-Y2; source: CHO-K1, stably expressed (cDNA in pcDNA 3.1+), postnuclear particulates, solubilised with digitonin and cholate
# Experiments:
# [1] = system: endothelin-1 receptor; settings: cited from earlier work
# From the text: (§1) The classical view of agonist binding assumes an attachment that is readily terminated by dilution or competition by ligands of higher affinity, such as competitive antagonists. The weak agonist binding for small ligand receptors, such as catecholamine receptors, greatly diminishes analytical options. This has signally contributed to the analytical success of covalent proteinaceous tags. However, many GPCRs with peptidic agonists show agonist attachments that are stable at least at low temperatures, and slow to dissociate even at 37 °C. Such stable (“quasi-irreversible”) binding was found for ...
# [2] = molecular target: rabbit Y2 receptor, native (rabbit (endogenous in kidney cortex, hypothalamus, piriform cortex)); experiment: radioligand binding; competition of PYY(3–36) with [125I]PYY(3–36), rabbit kidney particulates, entire receptor complement
# [3] = molecular target: rabbit Y2 receptor, native (rabbit (endogenous in kidney cortex, hypothalamus, piriform cortex)); experiment: radioligand binding; competition of PYY(3–36), rabbit kidney particulates after extraction with 8 mM cholate at 0–5 °C (>90% dimeric residue), trypsin up to 3 μg/mL
# [4] = molecular target: rabbit Y2 receptor, native (rabbit (endogenous in kidney cortex, hypothalamus, piriform cortex)); experiment: radioligand binding; aliquots of gradient fractions of labeled rabbit kidney particulates precipitated with 10% polyethyleneglycol-8000 at 300 mM KCl or KI and 50 μg/mL bovine γ-globulin, 10 min at 0–4 °C
# [5] = system: aggregated Y2 receptor material (rabbit kidney and CHO-Y2 particulates); experiment: Release of aggregated Y2 receptor material (bottom of 5%–20% gradients); assay type: biochemical; settings: 10 μM, preliminary experiment
# Procedure: More than 30% of the Y2 binding in rabbit kidney postmitochondrial particulates, and more than 20% in the CHO-Y2 postnuclear particulates sediments to the bottom of 5%–20% sucrose gradients over 18 h at 218,000× gmax, corresponding to weight in excess of 1000 kDa. A large part of this material sediments at 30,000× gmax over 10 min, and could be considered as aggregated. […] This preliminary experiment points to potential of such procedures in quantitation of effector-associated receptors at the level of dimers and monomers. There also is a promise of gaining more insight on the size and significance of receptor oligomers incorporating more than two receptor monomers.
# (§2) Rabbit kidney postmitochondrial particulates, rabbit piriform cortex and hypothalamic crude synaptosomes and CHO cell postnuclear particulates were prepared as described previously. After solubilization of particulates at 10 mM each of digitonin and sodium cholate in buffer A or B, the lysates were spun for 10 min at 1000× g to remove debris, and the supernatants sedimented for periods indicated in figure captions at 218,000× gmax through linear 5%–20% sucrose gradients (10 mL, made in buffer A). The gradients were divided by bottom dripping in 23 fractions of 0.45 mL. The sedimentation positions were calibrated with [^125I]-labeled bovine γ-globulin (158 kDa), human iron-saturated transferrin (75 kDa) and ovalbumin (44 kDa), and with colorized myosin (211 kDa), producing a linear relation of migration to molecular weight (R^2 > 0.99).
# [6] = system: Y2 receptor aggregates (anterior hypothalamus); experiment: Y2 receptor aggregates, sedimentation after treatment, rabbit anterior hypothalamus particulates; assay type: biochemical; settings: 10 μM, 15 min at 24 °C, 10%–30% gradient 6 h at 218,000× g
# Procedure: (§3) Figure 5. […] Particulates from rabbit kidney (A) and anterior hypothalamus (B) were incubated with 20 μM GγS or 10 μM U73122 for 15 min at 24 °C, sedimented, resuspended, labeled with 50 pM [^125I]hPYY(3–36) for 15 min at 24 °C, resedimented, lysed at 10 mM each digitonin and cholate and sedimented through a 10%–30% linear sucrose gradient for 6 h at 218,000× g and 5 °C, followed by gradient fractionation and counting. TEXT PRINTED IN THE PICTURE: (A) GγS: Bottom count: 10.8% | (A) U73122: Bottom count: 25.4% | (B) GγS: Bottom count: 8.98 % | (B) U73122: Bottom count: 17.4 %
# as §2, with “The sedimentation positions were calibrated with [^125I]-labeled bovine γ-globulin (158 kDa), human iron-saturated transferrin (75 kDa) and ovalbumin (44 kDa), and with colorized myosin (211 kDa), producing a linear relation of migration to molecular weight (R^2 > 0.99).” left out
# [7] = system: Y2 receptor aggregates (rabbit kidney); experiment: Y2 receptor aggregates, sedimentation after treatment, rabbit kidney particulates; assay type: biochemical; settings: 15 min at 24 °C
# Procedure: as §3, §2
# [8] = system: neuromedin U receptors; settings: cited from earlier work
# From the text: as §1
# [9] = system: 180 kDa heteropentamer (Y2 receptor dimer, G-protein trimer); experiment: Nucleotide labeling / conversion of 180 kDa heteropentamer to 90 kDa Gi3α-receptor monomer; assay type: biochemical; settings: 1–5 mM Mg^2+, micromolar GDP or GγS
# Procedure: The receptors were labeled for 30 min at 25 °C in respective particulates (50 μg protein/assay), employing not more than 50 pM [^125I]-labeled agonist peptides (as stated in individual experiments). Higher molar inputs of agonist peptides would produce significant Gα activation within short exposures (e.g., [24, 53]). The basal assay buffer contained 0.2% proteinase-free bovine serum albumin, 20 mM hepes.NaOH (pH 7.4), 1 mM diisopropylfluorophosphate, 0.04% bacitracin, and 10 μg/mL each of proteinase inhibitors aprotinin, bestatin, chymostatin, leupeptin and pepstatin. Depending on experiment design, this was supplemented by 3 mM CaCl2 and 1 mM MgCl2, (buffer A) or by 1 mM Na EDTA, pH 7.4 (buffer B). The nucleotide site labeling at 200 pM [^35S]GγS was for 30 min at 28 °C after pre-activation for 30 min at 28 °C at 3 μM GDP in the basal buffer with 50 μM EDTA, 100 mM NaCl and 4 mM MgCl2, and without CaCl2 (buffer C). All subsequent operations were carried out at 0–5 °C. The assays were terminated by sedimentation for 10 min at 30,000× gmax, followed by surface wash of the pellets.
# as §2, with “0.99). […]” for “0.99).”
# [10] = system: Y2 receptor; settings: cited from earlier work
# From the text: The classical view of agonist binding assumes an attachment that is readily terminated by dilution or competition by ligands of higher affinity, such as competitive antagonists. The weak agonist binding for small ligand receptors, such as catecholamine receptors, greatly diminishes analytical options.
# [11] = system: Y1 receptor; settings: cited from earlier work
# From the text: as §1
# [12] = system: 180 kDa heteropentamer and 90 kDa monomer-Gi α of Y2 receptor; experiment: Stability of agonist binding of 180 kDa and 90 kDa Y2 complexes to reagents; assay type: biochemical, rabbit; settings: for sensitivity of 180 kDa labeled material to K^+: 0.3 M K^+ (as KCl or KI)
# From the text: Figure 6. Stability and affinity of agonist binding differs greatly for heteropentamer and monomer forms of the rabbit kidney Y2 receptor. (A) Y2 agonist attached to 180 kDa heteropentamer is recovered completely by 10% polyethyleneglycol (PEG) at 0.3 M K^+ (The data are averages of six gradients, ±1 S.E.).
# The stability and affinity of agonist association with CHO-Y2 receptors could also be analyzed at the level of dimers and monomers by extraction and precipitation procedures coupled to competition binding assays (Figure 6).
# The pellets were then counted in a scintillation counter.
# as §2
# [13] = system: rabbit kidney Y2 receptor; experiment: PYY(3–36) binding to rabbit kidney Y2 receptor (heteropentamer and monomer forms)
# Procedure: The receptors were labeled for 30 min at 25 °C in respective particulates (50 μg protein/assay), employing not more than 50 pM [^125I]-labeled agonist peptides (as stated in individual experiments). […] The basal assay buffer contained 0.2% proteinase-free bovine serum albumin, 20 mM hepes.NaOH (pH 7.4), 1 mM diisopropylfluorophosphate, 0.04% bacitracin, and 10 μg/mL each of proteinase inhibitors aprotinin, bestatin, chymostatin, leupeptin and pepstatin. Depending on experiment design, this was supplemented by 3 mM CaCl2 and 1 mM MgCl2, (buffer A) or by 1 mM Na EDTA, pH 7.4 (buffer B). The nucleotide site labeling at 200 pM [^35S]GγS was for 30 min at 28 °C after pre-activation for 30 min at 28 °C at 3 μM GDP in the basal buffer with 50 μM EDTA, 100 mM NaCl and 4 mM MgCl2, and without CaCl2 (buffer C). All subsequent operations were carried out at 0–5 °C. The assays were terminated by sedimentation for 10 min at 30,000× gmax, followed by surface wash of the pellets.
# [14] = system: human calcitonin receptor; settings: cited from earlier work
# From the text: as §1
# [15] = system: Y4 receptor; settings: cited from earlier work
# From the text: as §1
# [16] = molecular target: the molecule itself; experiment: sucrose density gradient centrifugation; CHO-Y2 particulates preincubated in assay buffer at 27 °C (1 h or 3 h) or in ice (3 h), labeled 20 min at 27 °C with [125I]PYY(3–36), solubilised at 10 mM each digitonin and cholate, 5%–20% sucrose gradients, 18 h at 5 °C, 218,000 x gmax
# [17] = molecular target: B1; experiment: radioligand binding; competition against [125I]PYY(3–36) at the hY2 receptor; conditions not given; settings: one partner purified
molecule,measurement,setting,value
endothelin,stability of agonist binding,[1],quasi-irreversible
human peptide YY(3–36) (from UniProt P10082 31-64),IC50,[2],200 to 500 pM
same,IC50,[3],10 pM
[125I]human peptide YY(3–36) (from UniProt P10082 31-64),percent of the 180 kDa labeled material precipitated at 10% PEG,[4],> 80%
COc1ccc2c(c1)CC[C@@H]1[C@@H]2CC[C@]2(C)[C@@H](NCCCCCCN3C(=O)C=CC3=O)CC[C@@H]12 [U73122],part of aggregated material released,[5],About a third
same,Bottom count,[6],17.4%
same,main form yielded from Y2 receptor aggregates,"[7]; particulates from rabbit tissues (kidney and anterior hypothalamus), GγS 20 μM or U73122 10 μM",largely the heteropentamer
same,Bottom count,"[7]; rabbit kidney, 10 μM, 10%–30% gradient 6 h at 218,000× g",25.4%
"neuromedin U (FRVDEEFQSPFASQSRGYFLFRPRN; ends and bridges not checked; UniProt P48645 142-166, looked up) [agonist at its receptors]",stability of agonist binding,[8],quasi-irreversible
Nc1nc2c(ncn2[C@@H]2O[C@H](COP(=O)(O)OP(=O)(O)O)[C@@H](O)[C@H]2O)c(=O)[nH]1 [GDP],conversion of 180 kDa heteropentamer,[9],does convert to immunoprecipitable 90 kDa Gi3α-receptor monomer
neuropeptide Y [NPY],stability of agonist binding,[10],quasi-irreversible
same,stability of agonist binding,[11],quasi-irreversible
[Cl-].[K+] [KCl],effect on Y2 agonist bound to 90 kDa monomer-Gi α,[12]; 0.3 M KCl,detached
same,sensitivity of 180 kDa labeled material to K^+,[12],not sensitive
trypsin,Bmax for the dimeric Y2 in the cholate residue,[13]; above 0.3 μg trypsin,increases significantly
same,effect on affinity of PYY(3–36) binding to dimeric residue,"[13]; trypsin at up to 3 μg/mL, cholate residue",unaffected
same,stability of heteropentamers to trypsin,[12]; rabbit kidney particulates,considerable stability
[I-].[K+] [KI],sensitivity of 180 kDa labeled material to K^+,[12],not sensitive
salmon calcitonin,stability of agonist binding,[14],quasi-irreversible
pancreatic polypeptide,stability of agonist binding,[15],quasi-irreversible
C[C@H](CCC(=O)[O-])[C@H]1CC[C@H]2[C@@H]3[C@H](O)C[C@@H]4C[C@H](O)CC[C@]4(C)[C@H]3C[C@H](O)[C@]12C.[Na+] [sodium cholate],effect on Y2 agonist bound to 90 kDa monomer-Gi α,[12]; 8 mM cholate at 0–5 °C,detached
same,effect of sodium cholate on activated monomers,[12]; rabbit kidney particulates,removes activated monomers
B1,stoichiometry N,[16],2
"SALRHYINLITRQRY (peptide, UniProt P01303 50-64, looked up, neuropeptide Y, residues 22-36; also called neuropeptide Y(22–36)) [NPY(22–36)]",Kd,[17],6200 ± 1200 pM
